Source: US4657898A, “N^6 -substituted adenosines and method of use” (Warner-Lambert Company, priority 1985, dated 1987)

Assay: Mouse Activity and Screen Test Procedure (MAST): screen test failure (ST)
Settings: for Inhibition of screen test failure: percent of mice falling off the screen; for MAST ST LAD: lowest dose at which an A rating is achieved, screen test, i.p., mouse
Experimental: Nine unfasted Swiss-Webster male mice weighing 20-30 g are equally divided into three groups for each drug dose to be tested. That is, data for each dose level was generated by three separate groups of three mice each.
A minimum of three dose levels (10, 30, and 100 mg/kg) are tested for each drug. Treatments are administered intraperitoneally one hour prior to testing. All dosages are calculated as parent compound and given in volumes of 10 ml/kg. Compounds are dissolved or suspended in 0.2% Methocel. Control animals are injected with Methocel.
Testing: A two part testing procedure is started one hour postinjection. First, the screen test (ST) is performed (see Pharmac. Biochem. Behav. 6, 351-353, 1977). Briefly this test consists of placing mice on individual wire screens which are then rotated 180 degrees at the start of a 60 second observation period. The number of mice falling off the inverted screen is recorded.
Data: The data obtained from the screen test are expressed as percent of mice falling off the screen. Data derived from locomotor activity of drug treated mice are compared to the activity of vehicle treated animals and are expressed as percent inhibition of spontaneous locomotion. All percentages reported for inhibition of locomotion (LI) are based upon data accumulated for one hour. Both phases of testing are graded: A=60-100%; C=31-59%; and N=0-30%. An overall dose rating is obtained by the following criteria:
LAD refers to the lowest dose at which an A rating is achieved. […] The compounds are identified in the Examples.

SMILES | MAST ST LAD [mg/kg] | other results
OC[C@H]1O[C@@H](n2cnc3c(NCCC(c4ccccc4)c4ccccc4)ncnc32)[C@H](O)[C@@H]1O [Example 2, N^6-(3,3-Diphenylpropyl)adenosine] | > 100 | Inhibition of screen test failure (10 mg/kg i.p.): 0%; Inhibition of screen test failure (30 mg/kg i.p.): 0%; Inhibition of screen test failure (100 mg/kg i.p.): 0%
OC[C@H]1O[C@@H](n2cnc3c(NCC(c4ccccc4)c4ccccc4)nc(Cl)nc32)[C@H](O)[C@@H]1O [Example 3, N^6-(2,2-Diphenylethyl)-2-chloroadenosine] | > 100 | Inhibition of screen test failure (10 mg/kg i.p.): 0%; Inhibition of screen test failure (30 mg/kg i.p.): 11%; Inhibition of screen test failure (100 mg/kg i.p.): 44%
Nc1nc(NCC(c2ccccc2)c2ccccc2)c2ncn([C@@H]3O[C@H](CO)[C@@H](O)[C@H]3O)c2n1 [Example 4, N^6-(2,2-Diphenylethyl)-2-aminoadenosine] | > 100 | Inhibition of screen test failure (10 mg/kg i.p.): 0%; Inhibition of screen test failure (30 mg/kg i.p.): 11%; Inhibition of screen test failure (100 mg/kg i.p.): 22%
OC[C@H]1O[C@@H](n2cnc3c(NC(c4ccccc4)c4ccccc4)ncnc32)[C@H](O)[C@@H]1O [Example 5, N^6 -Diphenylmethyladenosine] | > 100 | –
OC[C@H]1O[C@@H](n2cnc3c(NCCCC(c4ccccc4)c4ccccc4)ncnc32)[C@H](O)[C@@H]1O [Example 6, N^6-(4,4-Diphenylbutyl)adenosine] | > 100 | –
OC[C@H]1O[C@@H](n2cnc3c(NCCCCC(c4ccccc4)c4ccccc4)ncnc32)[C@H](O)[C@@H]1O [Example 7, N^6-(5,5-Diphenylpentyl)adenosine] | > 100 | –
CC(CNc1ncnc2c1ncn2[C@@H]1O[C@H](CO)[C@@H](O)[C@H]1O)(c1ccccc1)c1ccccc1 [Example 8, N^6-(2,2-Diphenylpropyl)adenosine] | > 100 | –
Cc1cccc(C(CNc2ncnc3c2ncn3[C@@H]2O[C@H](CO)[C@@H](O)[C@H]2O)c2ccccc2)c1 (stereo partly drawn) [Example 9, N^6-(2-(3-Methylphenyl)-2-phenylethyl)adenosine] | 100 | –
OC[C@H]1O[C@@H](n2cnc3c(NCC(c4ccccc4)c4ccc(F)cc4)ncnc32)[C@H](O)[C@@H]1O (stereo partly drawn) [Example 10, N^6-(2-(4-Fluorophenyl)-2-phenylethyl)adenosine] | > 100 | –
OC[C@H]1O[C@@H](n2cnc3c(NCC(c4ccccc4)c4ccc(F)cc4)nc(Cl)nc32)[C@H](O)[C@@H]1O (stereo partly drawn) [Example 11, N^6-(2-(4-Fluorophenyl)-2-phenylethyl)-2-chloroadenosine] | > 100 | –
Nc1nc(NCC(c2ccccc2)c2ccc(F)cc2)c2ncn([C@@H]3O[C@H](CO)[C@@H](O)[C@H]3O)c2n1 (stereo partly drawn) [Example 12, N^6-(2-(4-Fluorophenyl)-2-phenylethyl)-2-amino adenosine] | > 100 | –
OC[C@H]1O[C@@H](n2cnc3c(NCC(c4ccc(F)cc4)c4ccc(F)cc4)ncnc32)[C@H](O)[C@@H]1O [Example 13, N^6-(2,2-Di-(4-fluorophenyl)ethyl)adenosine] | > 100 | –
OC[C@H]1O[C@@H](n2cnc3c(NCC(c4ccccc4)c4cccc(Cl)c4)ncnc32)[C@H](O)[C@@H]1O (stereo partly drawn) [Example 14, N^6-(2-(3-Chlorophenyl)-2-phenylethyl)adenosine] | > 100 | –
OC[C@H]1O[C@@H](n2cnc3c(NCC(c4ccccc4)c4ccc(Cl)cc4)ncnc32)[C@H](O)[C@@H]1O (stereo partly drawn) [Example 15, N^6-(2-(4-Chlorophenyl)-2-phenylethyl)adenosine] | > 100 | –
Nc1nc(NCC(c2ccccc2)c2ccc(Cl)cc2)c2ncn([C@@H]3O[C@H](CO)[C@@H](O)[C@H]3O)c2n1 (stereo partly drawn) [Example 16] | > 100 | –
OC[C@H]1O[C@@H](n2cnc3c(NCC(c4ccc(Cl)cc4)c4ccc(Cl)cc4)ncnc32)[C@H](O)[C@@H]1O [Example 17, N^6-(2,2-Di(4-chlorophenyl)ethyl)adenosine] | > 100 | –
Nc1nc(NCC(c2ccc(Cl)cc2)c2ccc(Cl)cc2)c2ncn([C@@H]3O[C@H](CO)[C@@H](O)[C@H]3O)c2n1 [Example 18] | > 30 | –
COc1ccc(C(CNc2ncnc3c2ncn3[C@@H]2O[C@H](CO)[C@@H](O)[C@H]2O)c2ccccc2)cc1 (stereo partly drawn) [Example 19, N^6-(2-(4-Methoxyphenyl)-2-phenylethyl)adenosine] | 30 | –
CC(CNc1nc(N)nc2c1ncn2[C@@H]1O[C@H](CO)[C@@H](O)[C@H]1O)(c1ccccc1)c1ccccc1 [Example 21, N^6-(2,2-Diphenylpropyl)-2-aminoadenosine] | > 100 | –
OC[C@H]1O[C@@H](n2cnc3c(NCC(O)(c4ccccc4)c4ccccc4)ncnc32)[C@H](O)[C@@H]1O [Example 22, N^6-(2,2-Diphenyl-2-hydroxyethyl)adenosine] | 100 | –
Nc1nc(NCC(O)(c2ccccc2)c2ccccc2)c2ncn([C@@H]3O[C@H](CO)[C@@H](O)[C@H]3O)c2n1 [Example 23, N^6-(2,2-Diphenyl-2-hydroxyethyl)-2-aminoadenosine] | > 100 | –
COC(=O)C(CNc1ncnc2c1ncn2[C@@H]1O[C@H](CO)[C@@H](O)[C@H]1O)(c1ccccc1)c1ccccc1 [Example 24, N^6-(2-Carbomethoxy-2,2-diphenylethyl)adenosine] | > 30 | –
CC(=O)OC[C@H]1O[C@@H](n2cnc3c(NCC(c4ccccc4)c4ccccc4)ncnc32)[C@H](OC(C)=O)[C@@H]1OC(C)=O [Example 25, 2',3',5'-Tri-O-acetyl-N^6-(2,2-diphenylethyl)adenosine] | > 100 | –
O=C(OC[C@H]1O[C@@H](n2cnc3c(NCC(c4ccccc4)c4ccccc4)ncnc32)[C@H](OC(=O)c2ccccc2)[C@@H]1OC(=O)c1ccccc1)c1ccccc1 [Example 26, 2',3',5'-Tri-O-benzoyl-N^6-(2,2-diphenylethyl) adenosine] | > 100 | –
CC(=O)OC[C@H]1O[C@@H](n2cnc3c(NCC(c4ccccc4)c4ccccc4)nc(Cl)nc32)[C@H](OC(C)=O)[C@@H]1OC(C)=O [Example 27, 2',3',5'-Tri-O-acetyl-N^6-(2,2-diphenylethyl)-2-chloroadenosine] | > 100 | –
O=P(O)(O)OC[C@H]1O[C@@H](n2cnc3c(NCC(c4ccccc4)c4ccccc4)ncnc32)[C@H](O)[C@@H]1O [Example 28, N^6-(2,2-Diphenylethyl)adenosine-5'-phosphate] | > 30 | –
CC1(C)O[C@@H]2[C@H](O1)[C@@H](CO)O[C@H]2n1cnc2c(NCC(c3ccccc3)c3ccccc3)ncnc21 [Example 29, 2',3'-O-Isopropylidene-N^6-(2,2-diphenylethyl) adenosine] | > 100 | –
